In PubChem BioAssay (NCI):
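All cell lines were grown in 96-well plates and treated with compound for 48 hours. TGI marks complete inhibition of growth.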

What was measured:
Assay in all cases: NCI tumour cell line growth inhibition, 48 h
786-0 renal = system: 786-0 renal
A498 renal = system: A498 renal
A549 NSCLC = system: A549 NSCLC
ACHN renal = system: ACHN renal
BT-549 breast = system: BT-549 breast
CAKI-1 renal = system: CAKI-1 renal
CCRF-CEM leukemia = system: CCRF-CEM leukemia
COLO 205 colon = system: COLO 205 colon
DU-145 prostate = system: DU-145 prostate
EKVX NSCLC = system: EKVX NSCLC
HCC-2998 colon = system: HCC-2998 colon
HCT-116 colon = system: HCT-116 colon
HCT-15 colon = system: HCT-15 colon
HL-60(TB) leukemia = system: HL-60(TB) leukemia
HOP-62 NSCLC = system: HOP-62 NSCLC
HOP-92 NSCLC = system: HOP-92 NSCLC
HT29 colon = system: HT29 colon
IGROV1 ovarian = system: IGROV1 ovarian
K-562 leukemia = system: K-562 leukemia
KM12 colon = system: KM12 colon
LOX IMVI melanoma = system: LOX IMVI melanoma
M14 melanoma = system: M14 melanoma
MALME-3M melanoma = system: MALME-3M melanoma
MCF7 breast = system: MCF7 breast
MDA-MB-231 breast = system: MDA-MB-231 breast
MDA-MB-435 = system: MDA-MB-435
MDA-N = system: MDA-N
MOLT-4 leukemia = system: MOLT-4 leukemia
NCI-H23 lung = system: NCI-H23 lung
NCI-H460 lung = system: NCI-H460 lung
NCI-H522 lung = system: NCI-H522 lung
NCI/ADR-RES ovarian = system: NCI/ADR-RES ovarian
OVCAR-3 ovarian = system: OVCAR-3 ovarian
OVCAR-4 ovarian = system: OVCAR-4 ovarian
OVCAR-5 ovarian = system: OVCAR-5 ovarian
OVCAR-8 ovarian = system: OVCAR-8 ovarian
PC-3 prostate = system: PC-3 prostate
RXF 393 renal = system: RXF 393 renal
SF-268 CNS = system: SF-268 CNS
SF-295 CNS = system: SF-295 CNS
SF-539 CNS = system: SF-539 CNS
SK-MEL-2 melanoma = system: SK-MEL-2 melanoma
SK-MEL-28 melanoma = system: SK-MEL-28 melanoma
SK-MEL-5 melanoma = system: SK-MEL-5 melanoma
SK-OV-3 ovarian = system: SK-OV-3 ovarian
SN12C renal = system: SN12C renal
SNB-19 CNS = system: SNB-19 CNS
SNB-75 CNS = system: SNB-75 CNS
SR leukemia = system: SR leukemia
SW-620 colon = system: SW-620 colon
T-47D breast = system: T-47D breast
TK-10 renal = system: TK-10 renal
U251 CNS = system: U251 CNS
UACC-257 melanoma = system: UACC-257 melanoma
UACC-62 melanoma = system: UACC-62 melanoma
UO-31 renal = system: UO-31 renal
HS 578T breast = system: HS 578T breast
NCI-H226 lung = system: NCI-H226 lung
RPMI-8226 leukemia = system: RPMI-8226 leukemia

Measured: TGI

COC(=O)C(=O)c1cc2ccccc2n1S(=O)(=O)c1ccccc1
> 100 µM: 786-0 renal | A498 renal | A549 NSCLC | ACHN renal | BT-549 breast | CAKI-1 renal | CCRF-CEM leukemia | COLO 205 colon | DU-145 prostate | EKVX NSCLC | HCC-2998 colon | HCT-116 colon | HCT-15 colon | HL-60(TB) leukemia | HOP-62 NSCLC | HOP-92 NSCLC | HT29 colon | IGROV1 ovarian | K-562 leukemia | KM12 colon | LOX IMVI melanoma | M14 melanoma | MALME-3M melanoma | MCF7 breast | MDA-MB-231 breast | MDA-MB-435 | MDA-N | MOLT-4 leukemia | NCI-H23 lung | NCI-H460 lung | NCI-H522 lung | NCI/ADR-RES ovarian | OVCAR-3 ovarian | OVCAR-4 ovarian | OVCAR-5 ovarian | OVCAR-8 ovarian | PC-3 prostate | RXF 393 renal | SF-268 CNS | SF-295 CNS | SF-539 CNS | SK-MEL-2 melanoma | SK-MEL-28 melanoma | SK-MEL-5 melanoma | SK-OV-3 ovarian | SN12C renal | SNB-19 CNS | SNB-75 CNS | SR leukemia | SW-620 colon | T-47D breast | TK-10 renal | U251 CNS | UACC-257 melanoma | UACC-62 melanoma | UO-31 renal

CC(=O)OCC1=C2C(OC(=O)C(C)C)CC3(COC(C)=O)OC3/C=C\C3(C)OC3C2OC1=O (configuration not stated)
> 100 µM: 786-0 renal | A498 renal | A549 NSCLC | ACHN renal | BT-549 breast | CAKI-1 renal | CCRF-CEM leukemia | COLO 205 colon | DU-145 prostate | EKVX NSCLC | HCC-2998 colon | HCT-116 colon | HCT-15 colon | HL-60(TB) leukemia | HOP-62 NSCLC | HS 578T breast | HT29 colon | IGROV1 ovarian | K-562 leukemia | KM12 colon | LOX IMVI melanoma | M14 melanoma | MALME-3M melanoma | MCF7 breast | MDA-MB-231 breast | MDA-MB-435 | MDA-N | MOLT-4 leukemia | NCI-H226 lung | NCI-H23 lung | NCI-H460 lung | OVCAR-3 ovarian | OVCAR-4 ovarian | OVCAR-5 ovarian | OVCAR-8 ovarian | PC-3 prostate | RPMI-8226 leukemia | RXF 393 renal | SF-268 CNS | SF-295 CNS | SF-539 CNS | SK-MEL-2 melanoma | SK-MEL-28 melanoma | SK-MEL-5 melanoma | SK-OV-3 ovarian | SN12C renal | SNB-19 CNS | SNB-75 CNS | SR leukemia | SW-620 colon | T-47D breast | TK-10 renal | U251 CNS | UACC-257 melanoma | UACC-62 melanoma | UO-31 renal
